# Test results taken from ChEMBL document CHEMBL4312014, “Nitrothiadiazolo[3,2-a]pyrimidines as promising antiglycating agents” (Eur J Med Chem, 2020).
# Active and inactive are the calls of the source. The rule behind the calls is not given here.
# Key:
# [1] = Anti-glycation activity assessed as inhibition of AGE formation by measuring decrease in glycated BSA protein level at 1000 uM incubated for 24 hrs in presence of glucose by fluorescence based assay relative to control; assay type: functional
# [2] = Anti-glycation activity assessed as inhibition of AGE formation by measuring decrease in glycated BSA protein level at 100 uM incubated for 24 hrs in presence of glucose by fluorescence based assay relative to control; assay type: functional
# [3] = Metal chelating activity assessed as inhibition of Cu2+ ion-induced oxidation of ascorbic acid compound treated with CuSO4.5H2O for 5 mins followed by ascorbate addition and measured immediately by spectrophotometric analysis
# Rattus norvegicus [4] = test: Ex vivo inhibition of DPP4 in Wistar rat serum assessed as p-nitroaniline formation at 10 mg/kg, po by incubating compound-treated serum with Gly-Pro-p-nitroanilide substrate and measured for 30 mins by microplate reader analysis; assay type: functional, organism-based
# Rattus norvegicus [5] = test: Ex vivo inhibition of DPP4 in Wistar rat serum assessed as decrease in p-nitroaniline formation at 10 mg/kg, po by incubating 0 to 4 hrs compound-treated serum with Gly-Pro-p-nitroanilide substrate and measured for 30 mins by microplate reader analysis; assay type: functional, organism-based
# [6] = Anti-glycation activity assessed as inhibition of AGE formation by measuring decrease in glycated BSA protein level incubated for 24 hrs in presence of glucose by fluorescence based assay; assay type: functional
# Dipeptidyl peptidase 4 [7] = target: T1, Dipeptidyl peptidase 4 (Homo sapiens, UniProt P27487); assay type: cell-free, Serum
# Target sequence in this assay (P27487 whole entry): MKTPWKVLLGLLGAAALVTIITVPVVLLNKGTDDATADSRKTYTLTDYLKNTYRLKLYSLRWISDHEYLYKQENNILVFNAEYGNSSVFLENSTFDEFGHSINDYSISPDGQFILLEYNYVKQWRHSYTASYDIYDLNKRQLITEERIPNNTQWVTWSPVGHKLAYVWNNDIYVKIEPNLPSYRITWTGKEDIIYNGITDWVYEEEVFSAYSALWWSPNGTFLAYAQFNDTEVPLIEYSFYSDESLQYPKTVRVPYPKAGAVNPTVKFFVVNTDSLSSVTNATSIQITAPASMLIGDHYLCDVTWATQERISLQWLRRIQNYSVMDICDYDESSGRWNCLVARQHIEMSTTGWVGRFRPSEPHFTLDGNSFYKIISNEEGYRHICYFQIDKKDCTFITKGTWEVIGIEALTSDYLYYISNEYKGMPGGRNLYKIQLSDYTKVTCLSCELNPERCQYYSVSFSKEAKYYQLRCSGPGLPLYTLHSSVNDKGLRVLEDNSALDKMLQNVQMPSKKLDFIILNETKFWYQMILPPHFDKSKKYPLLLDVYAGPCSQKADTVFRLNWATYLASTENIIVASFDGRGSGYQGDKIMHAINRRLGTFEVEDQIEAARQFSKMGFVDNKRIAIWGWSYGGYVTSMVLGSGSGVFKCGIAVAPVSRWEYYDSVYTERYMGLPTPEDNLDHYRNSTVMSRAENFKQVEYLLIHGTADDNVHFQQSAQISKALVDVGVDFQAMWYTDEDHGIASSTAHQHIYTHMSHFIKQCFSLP
# Rattus norvegicus [8] = test: Ex vivo inhibition of DPP4 in Wistar rat serum assessed as decrease in p-nitroaniline formation at 10 mg/kg, po by incubating 0 to 2 hrs compound-treated serum with Gly-Pro-p-nitroanilide substrate and measured for 30 mins by microplate reader analysis; assay type: functional, organism-based
# Dipeptidyl peptidase 4 [9] = target: T1, Dipeptidyl peptidase 4; conditions: Serum, at 100 µM
# Target sequence in this assay (P27487 whole entry, looked up): as the sequence (P27487 whole entry) above
Structure (SMILES),inhibition [1] [%],inhibition [2] [%],IC50 [3] [µM],inhibition (Rattus norvegicus [4]),inhibition (Rattus norvegicus [5]),IC50 [6] [µM],IC50 (Dipeptidyl peptidase 4 [7]) [µM],inhibition (Rattus norvegicus [8]),inhibition (Dipeptidyl peptidase 4 [9]) [%]
CCCNc1nc2scnn2c(=O)c1[N+](=O)[O-],52.5,14.9,62,Active,–,–,–,–,–
N#C[C@@H]1CCCN1C(=O)CNC12CC3CC(CC(O)(C3)C1)C2,–,–,–,–,Active,–,–,–,–
CC(C)CNc1nc2scnn2c(=O)c1[N+](=O)[O-],73.9,23.1,37.2,Active,–,290,–,–,–
CC1(C)OCC(CNc2nc3scnn3c(=O)c2[N+](=O)[O-])O1 (stereo not drawn),71.4,42.1,48.1,Active,–,209,–,–,–
CCc1ccc(CCOc2ccc(CC3SC(=O)NC3=O)cc2)nc1 (stereo not drawn) [PIOGLITAZONE],–,–,44.1,–,–,–,–,–,–
O=c1c([N+](=O)[O-])c(NCCc2ccc(Cl)cc2)nc2scnn12,87.4,48.8,> 200,–,–,134,55.9,Active,69.8
O=c1c([N+](=O)[O-])c(NCCCCO)nc2scnn12,43.6,26.1,> 200,Active,–,–,–,–,–
CCCCNc1nc2scnn2c(=O)c1[N+](=O)[O-],77,32.1,79.1,Active,–,204,–,–,–
CC(C)Nc1nc2scnn2c(=O)c1[N+](=O)[O-],69.6,30,> 200,Active,–,325,–,–,–
"O=C(O)CCCCC1CCSS1 (stereo not drawn) [LIPOIC ACID, ALPHA]",–,–,68.9,–,–,–,–,–,–
CC(=O)OCCNc1nc2scnn2c(=O)c1[N+](=O)[O-],50.8,44.8,> 200,Active,–,–,–,–,–
O=c1c([N+](=O)[O-])c(NCCO)nc2scnn12,44.4,29.5,86.1,Active,–,–,–,–,–
CC(=O)OCCCNc1nc2scnn2c(=O)c1[N+](=O)[O-],37.2,12.5,115,Active,–,–,–,–,–
CC(C)(C)Nc1nc2scnn2c(=O)c1[N+](=O)[O-],63.8,21.3,56,Active,–,181,–,–,–
CC(=O)OCCCCNc1nc2scnn2c(=O)c1[N+](=O)[O-],37.5,11.5,> 200,Active,–,–,–,–,–
N=C(N)NN [PIMAGEDINE],57.8,6,> 1000,–,–,765,–,–,–
O=c1c([N+](=O)[O-])c(NCCCO)nc2scnn12,32.7,16.1,> 200,Active,–,–,–,–,–
O=c1c([N+](=O)[O-])c(NCC(O)CO)nc2scnn12 (stereo not drawn),33.7,10.3,> 200,Active,–,–,–,–,–
O=c1c([N+](=O)[O-])c(NCCc2ccc(O)cc2)nc2scnn12,76.8,43.8,> 200,Active,–,167,> 100,–,42.1
